Consider two molecules from patent US8680275B2, “Fused heterocyclic compounds as orexin receptor modulators” (Janssen Pharmaceutica NV, priority 2009, dated 2014).

One test concerns the target human orexin-2 receptor (Homo sapiens (Human), UniProt O43614). The experiment in a line: Human orexin 2 receptor radioligand binding ([3H]-EMPA competition). The settings on record: HEK293 cells stably expressing human orexin-2 receptor; [3H]-EMPA 5 nM final; read-out: OR-2 Ki. In a few lines: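 Competition binding on HEK293 cells stably expressing human orexin-2 receptor, using 5 nM final [3H]-EMPA in PBS, compounds 0.1 nM to 10 μM (DMSO ≤0.1%). 60 min at room temperature, then filtration and scintillation counting; nonspecific binding defined with 10 μM of a reference antagonist.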

The target in another test is human orexin 1 receptor (Homo sapiens (Human), UniProt O43613). Kind of test: Human orexin 1 receptor radioligand binding ([3H]-SB674042 competition). The following applies: CHO cells stably expressing human orexin 1 receptor; [3H]-SB674042 4 nM final; read-out: OR-1 Ki. In a few lines: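 CHO cells stably expressing human OX1R incubated 60 min at room temperature with [3H]-SB674042 and compounds (7 concentrations, 0.1 nM–10 μM; DMSO ≤0.1%) in PBS. Nonspecific binding defined with 10 μM of a reference urea antagonist; bound radioactivity measured by filtration and scintillation counting.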
Sequence of human orexin 1 receptor (O43613 whole entry): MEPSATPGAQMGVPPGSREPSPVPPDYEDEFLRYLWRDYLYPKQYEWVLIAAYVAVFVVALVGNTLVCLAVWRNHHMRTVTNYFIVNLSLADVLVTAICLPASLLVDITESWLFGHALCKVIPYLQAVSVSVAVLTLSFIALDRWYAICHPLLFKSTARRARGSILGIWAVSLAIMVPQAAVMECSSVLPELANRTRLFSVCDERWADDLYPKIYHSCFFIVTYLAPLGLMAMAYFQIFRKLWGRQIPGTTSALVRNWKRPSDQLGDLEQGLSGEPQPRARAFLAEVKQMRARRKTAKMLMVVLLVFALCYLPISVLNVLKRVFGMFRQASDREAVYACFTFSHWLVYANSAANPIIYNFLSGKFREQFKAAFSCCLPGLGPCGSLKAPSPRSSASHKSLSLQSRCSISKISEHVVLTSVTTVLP

Each structure is given as a SMILES string. pKi: −log10 of the molar value.

Sequence of human orexin-2 receptor (O43614 whole entry): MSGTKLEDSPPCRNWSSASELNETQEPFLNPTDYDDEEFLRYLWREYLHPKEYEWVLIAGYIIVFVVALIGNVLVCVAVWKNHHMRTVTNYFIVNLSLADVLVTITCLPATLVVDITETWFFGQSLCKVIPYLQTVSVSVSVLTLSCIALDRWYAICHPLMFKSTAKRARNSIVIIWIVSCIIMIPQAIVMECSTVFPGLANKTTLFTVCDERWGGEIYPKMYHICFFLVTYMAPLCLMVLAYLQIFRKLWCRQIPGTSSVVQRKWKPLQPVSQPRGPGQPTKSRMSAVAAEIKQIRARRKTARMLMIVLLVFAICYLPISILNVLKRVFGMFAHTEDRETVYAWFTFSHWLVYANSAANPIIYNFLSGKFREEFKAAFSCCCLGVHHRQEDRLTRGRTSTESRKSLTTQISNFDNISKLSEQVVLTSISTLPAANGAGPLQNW

Turning to `Cc1onc(-c2ccccc2)c1C(=O)N1CC[C@H]2CN(c3ccnc(-c4ccccc4)n3)[C@H]2C1` [Example 197, (5-Methyl-3-phenylisoxazol-4-yl)((1R,6S)-8-(2-phenylpyrimidin-4-yl)-3,8-diazabicyclo[4.2.0]octan-3-yl)methanone], the pKi on human orexin-2 receptor was 5.51; on human orexin 1 receptor it was 5.59.
In the same order, the values of `Cc1nc(N2C[C@@H]3CCN(C(=O)c4ccccc4-n4nccn4)C[C@@H]32)nc(C)c1C` [Example 270, (1R,6S)-3-{[2-(2H-1,2,3-Triazol-2-yl)phenyl]carbonyl}-8-(4,5,6-trimethylpyrimidin-2-yl)-3,8-diazabicyclo[4.2.0]octane] are 7.96 and 7.80.
